Measured values: patent publication US20240124470A1, “FIVE-MEMBERED RING DERIVATIVE AND MEDICAL USE THEREOF” (SICHUAN HAISCO PHARMACEUTICAL CO., LTD., priority 2020, published 2024)
Where two headings read alike, the source gives them in different places.

Legend:
GLP-1 receptor = target: T1, GLP-1 receptor (Homo sapiens, UniProt P43220); experiment: HEK293/CRE-luc/GLP-1R cell luciferase reporter test (agonistic effect on GLP-1 receptor); type: cell-based; conditions: HEK293/CRE-luc/GLP-1R cells
T1 construct: expressed in transfected cells
Method: 1. HEK293/CRE-luc/GLP-1β cell viability
Cell: HEK293/CRE-luc/GLP-1R
Cell culture medium: DMEM+10% FBS+400 μg/ml G418+100 μg/ml Hygromycin B
Frozen stock solution: 90% FBS, 10% (V/V) DMSO
Detection buffer: DMEM+1% FBS
Cells were cultured in DMEM medium+10% FBS+400 μg/ml G418+100 μg/ml Hygromycin B in a CO2 incubator at 37° C., and passaged once every 3-4 days.
Cell plating: Trypsinization adjusted the cell density to 1.67×10^5 cells/mL; 60 μL of cells per well (10000 cells/well) was inoculated in a 384-well plate containing compounds; A NC well (negative control) and a background well (no cells) were set. Incubation was performed for about 18+2 h in the incubator.
Compounds were serially diluted with the detection buffer, and the detection concentration was 0.01 nM-1000 nM.
The cell culture plate was removed and all supernatant was aspirated from the cells. The cells were washed gently 2 times with 1×PBS.
The diluted compound was added to a 384-well plate (10 μL/well), and three replicate wells were set for each concentration. 10 μL of the detection buffer was added to the NC well, sealed and incubated at 37° C. for 6 hours.
The plate was removed, the cells were allowed to equilibrate to room temperature (at least 15 min), and then all supernatant was aspirated from the cells.
Steady-Glo® Reagent was added to the sample well at 10 μL/well and incubated at room temperature for 5 min to lyse the cells.
The test results were read with a BMG microplate reader.
The mean background value was calculated.
The induction factor (Fold of induction, FI)=(induction well value−background value)/(negative control well value −background value) was calculated.
The EC50 value of the sample was calculated using Graphpad Prim 8.0 software using four-parameter fitting analysis.
Mean and standard error (Mean±SEM) were calculated for all results and Graphpad Prism software was used for statistical analysis. Specific data were presented in the form of graphs. P<0.05 was considered to be statistically different.

[1] = Stability test in mouse liver microsomes; type: in vitro ADME
Method: (§1) 3. Stability Test in Mouse Liver Microsomes At 37° C., 1 μM of the test compound was incubated with mouse liver microsomes (0.5 mg/mL) supplemented with NADPH regeneration system for 5, 10, 20, 30 and 60 minutes, and then LC-MS/MS method was used to detect the concentration of the test compound in the generated sample. The half-life (T1/2) and inherent clearance rate (CLint(mic)) of the compound in mouse liver microsome solution were obtained by calculating at the corresponding time points and the remaining percentage of the compound.

[2] = Stability test in human liver microsomes; type: in vitro ADME
Method: as §1, with “7.” for “3.”, “Human” for “Mouse”, “human” for “mouse”

[3] = Evaluation of pharmacokinetics in cynomolgus monkeys; type: in vivo; conditions: intravenous 2 mg/kg and intragastric 10 mg/kg
Method: Evaluation of Pharmacokinetics in Cynomolgus Monkeys
Male cynomolgus monkeys (raised in Suzhou LEOLAB Bio Tech. Co., Ltd.), weighing 3-5 kg, were fasted overnight (14-18 h), […]. On the day of the experiment, 6 male cynomolgus monkeys were divided into 2 groups, with 3 […] in each group. The test compound was administered intravenously and intragastrically at doses of 2 mg/kg and 10 mg/kg respectively. Before administration and 5 min, 15 min, 30 min, 1 h, 2 h, 4 h, 6 h, 8 h 10 h, 12 h and 24 h after administration, 1 ml of blood was collected via the limb vein, placed in an EDTAK2 centrifuge tube, and centrifuged at 6000 rpm at 4° C. for 5 min, and then the plasma was collected. The plasma sample was added to an acetonitrile solution containing an internal standard (dexamethasone, 500 ng/mL), vortexed and centrifuged at 10,000 rpm for 10 min, and the supernatant was taken for LC-MS/MS analysis. Pharmacokinetic parameters were calculated using the non-compartmental model in WinNonlin Version 8.0 (Pharsight, Mountain View, CA) pharmacokinetic software. Conclusion: The compounds of the present invention have good metabolic properties.

CYP2D6 = target: T2, CYP2D6 (Homo sapiens, UniProt P10635); experiment: Cytochrome P450 isoenzyme inhibition test, human liver microsomes: CYP2D6; type: in vitro ADME; conditions: human liver microsomes 0.1 mg/mL; read-out: IC50, inhibitory activity on CYP2D6
T2 construct: pre-incubated with the human liver microsome solutions containing 5 enzyme mixed substrates; from tissue; host or cells: human liver microsomes
Method: 9. Cytochrome P450 Isoenzyme Inhibition Test Experimental objective: The inhibitory effect of the test compound on the activity of human liver microsomal cytochrome P450 isoenzyme (CYP1A2, CYP2C19, CYP2D6 and CYP3A4) was determined. Experimental operation: The test compound at an incubation concentration of 0, 0.03, 0.1, 0.3, 1, 3, 10, 30 and 100 μM was pre-incubated with the human liver microsome solutions containing 5 enzyme mixed substrates (liver microsome concentration: 0.1 mg/mL) in a water bath at 37° C. for 10 min, respectively, and then a coenzyme factor (NADPH) was added to start the reaction. After incubation in a water bath at 37° C. for 10 min, the reaction was terminated by adding glacial acetonitrile solution containing an internal standard, shaken for 1 min, centrifuged at 4° C. and 10,000 rpm for 10 min, and the supernatant was taken for LC/MS/MS analysis. The amount of metabolites produced by each CYP enzyme substrate was detected. The activity of each CYP isoenzyme was reflected by the production rate of each metabolite. […]

T1 sequence (P43220 24-463): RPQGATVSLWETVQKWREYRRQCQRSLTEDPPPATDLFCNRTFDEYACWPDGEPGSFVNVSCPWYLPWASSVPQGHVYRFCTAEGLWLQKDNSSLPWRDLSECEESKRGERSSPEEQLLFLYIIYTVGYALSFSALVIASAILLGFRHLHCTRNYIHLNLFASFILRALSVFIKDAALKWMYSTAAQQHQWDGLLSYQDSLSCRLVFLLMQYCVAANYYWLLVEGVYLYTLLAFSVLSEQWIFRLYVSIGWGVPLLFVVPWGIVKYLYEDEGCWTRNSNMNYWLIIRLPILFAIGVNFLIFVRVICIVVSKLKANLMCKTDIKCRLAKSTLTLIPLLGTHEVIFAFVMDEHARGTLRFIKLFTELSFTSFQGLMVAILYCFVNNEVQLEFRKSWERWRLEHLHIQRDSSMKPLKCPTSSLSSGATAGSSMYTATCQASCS
T2 sequence (P10635 whole entry): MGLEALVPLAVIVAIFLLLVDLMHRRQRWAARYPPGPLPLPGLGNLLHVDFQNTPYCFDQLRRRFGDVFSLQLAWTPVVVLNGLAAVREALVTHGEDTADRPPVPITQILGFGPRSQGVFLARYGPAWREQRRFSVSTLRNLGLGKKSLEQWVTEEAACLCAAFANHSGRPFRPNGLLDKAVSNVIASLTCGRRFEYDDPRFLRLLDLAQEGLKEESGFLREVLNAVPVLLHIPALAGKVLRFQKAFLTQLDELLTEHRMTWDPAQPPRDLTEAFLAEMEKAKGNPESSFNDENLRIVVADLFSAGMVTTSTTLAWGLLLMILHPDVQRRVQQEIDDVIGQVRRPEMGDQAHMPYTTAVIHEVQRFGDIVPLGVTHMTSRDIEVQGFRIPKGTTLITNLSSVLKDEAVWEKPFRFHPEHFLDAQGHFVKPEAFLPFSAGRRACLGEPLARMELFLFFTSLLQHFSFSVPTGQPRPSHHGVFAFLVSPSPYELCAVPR

EC50 (GLP-1 receptor; 6 hours incubation, class symbols, read-out: EC50): < 10 nM
EC50 (GLP-1 receptor; bound stated, read-out: EC50 value): < 10 nM
T1/2 ratio of compound 6 to compound DZ-6 ([1]; mouse liver microsomes): greater than 2
half-life at 1 μM ([1]; mouse liver microsomes 0.5 mg/mL, 1 μM compound, NADPH, 37° C.): 296 min
microsomal CLint at 1 μM ([1]; mouse liver microsomes 0.5 mg/mL, 1 μM compound, NADPH, 37° C., read-out: CLint(mic)): 4.69 µL/min/mg
half-life at 1 μM ([2]; human liver microsomes 0.5 mg/mL, 1 μM compound, NADPH, 37° C.): 554 min
microsomal CLint at 1 μM ([2]; human liver microsomes 0.5 mg/mL, 1 μM compound, NADPH, 37° C., read-out: CLint(mic)): 2.5 µL/min/mg
T1/2 ratio of compound 6 to compound DZ-6 ([2]; human liver microsomes test (section 7)): greater than 3
clearance rate in monkeys [3]: low clearance rate
half-life in monkeys [3]: long half-life
IC50 (CYP2D6): > 50 µM
SMILES: N#Cc1ccc(COc2cccc(-c3ccc(Cc4nc5sc(C(=O)O)cc5n4C[C@@H]4CCO4)c(F)c3)n2)c(F)c1 [Compound 6, (S)-2-(4-(6-((4-cyano-2-fluorobenzyl)oxy)pyridin-2-yl)-2-fluorobenzyl)-1-(oxetan-2-ylmethyl)-1H-thieno[2,3-d]imidazole-5-carboxylic acid]
